Measurements taken from patent US20250136581A1, “SUBSTITUTED TRIAZOLE DERIVATIVE, PREPARATION METHOD THEREFOR, PHARMACEUTICAL COMPOSITION THEREOF, AND USE THEREOF” (SHANGHAI SIMR BIOTECHNOLOGY CO., LTD., priority 2021, published 2025).
Read-outs that look alike come from different tables or passages of the source.

Tests used:
[1] = biological target: human α5β3γ2 receptors (α5-GABAA receptor) (Homo sapiens (Human), UniProt P18507+P31644); assay: 3H-flunitrazepam competition binding, human α5β3γ2 GABAA receptor; settings: HEK293 cell membranes, 1 nM 3H-flunitrazepam
Summary of the method: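 Radioligand displacement of 1 nM 3H-flunitrazepam from membranes of HEK293 lines stably expressing the human subtypes, 1 h at room temperature, compound in 8-point 4-fold series. Bound label on GF/C filters counted by scintillation; Ki derived from fitted IC50, with flumazenil as low control.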

[2] = biological target: α5-GABAA receptor (α5, β3, γ2 subunits) (Homo sapiens (Human), UniProt P18507+P31644); assay: Whole cell patch clamp, inverse agonist efficacy in HEK293 cells expressing α5-GABAA receptor; format: cell-based; settings: HEK293, drug 100 nM, GABA 0.05 μM, −60 mV; read-out: Compound inverse agonist efficacy %
Text: The inventors used electrophysiological methods to determine the inverse agonist efficacy of the drugs to be tested on the α5-GABAA receptor. The detailed methods are as follows:
Different subunits of the GABAA receptor were co-expressed in the HEK293 cell line to construct a fully functional GABAA receptor. The α, β, and γ subunits are essential to form a complete functional GABAA receptor. In this example, the present disclosure had established the following cell model: α5 subunit (see GenBank Accession No.: NM_000810.3 for protein sequences), β3 subunit (see GenBank Accession No.: NM_000814.5 for protein sequences), and γ2 subunit (see GenBank Accession No.: NM_000816.3 for protein sequences) were co-expressed in the HEK293 cell line, followed by screening the monoclonal stably transfected cell line. This cell line expressed a fully functional α5-GABAA receptor.
The monoclonal stably transfected HEK293 cell line expressing α5-GABAA receptor were cultured in 10 cm culture dishes and passaged when the cells grew to 80% to 90% confluent. During passaging, the culture medium was aspirated first, then 3 mL of DPBS phosphate buffer salt (Gibco™) was added to the culture dishes, and the culture dishes were shaken slightly, and DPBS was aspirated. 1 mL of trypsin (TrypLE Express, Gibco™) was added thereto, and the cells were digested at 37° C. for 1-2 minutes. Then 3 mL of complete medium (DMEM+10% FBS (Gibco™)) was added and the cells at the bottom of the culture dishes were dispersed. The cell suspension was transferred to a 15 mL centrifugal tube (Corning) and then centrifuged at 200 g for 3 minutes. The supernatant was discarded, 4 mL of complete medium was added, and the cells were gently blown and resuspended for use. If cell passaging was performed, the cell suspension was diluted at a ratio of 1:5 or 1:10. If cells for electrophysiological detection were prepared, the cell suspension was diluted in a ratio of 1:12, then added into a 24-well dish (Corning™) in which glass slides were placed and pretreated with Poly-D-Lysine, and the experiment was carried out after the cells adhered to the wall. The cells used for electrophysiology was cultured no more than 48 hours.
Drug concentration setting: The final drug concentration used in drug screening was 100 nM, and the GABA concentration was 0.05 μM. The whole cell patch clamp technique was used in electrophysiological assays, which could refer to the literature (I. Lecker, Y. Yin, D. S. Wang and B. A. Orser, British Journal of Anaesthesia, 2013, 110 (Si), i73-i81). The compositions of the extracellular solution for electrophysiology assay were as follows: 150 mM NaCl, 5 mM KCl, 2.5 mM CaCl2, 1 mM MgCl2, 10 mM HEPES, and 10 mM glucose (pH 7.4); the formulation of the electrode internal fluid for electrophysiology use was as follows: 140 mM CsCl, 11 mM EGTA, 10 mM HEPES, 2 mM CaCl2, 1 mM MgCl2, 4 mM MgATP, and 2 mM TEA (pH 7.3). The signal acquisition used an EPC-10 amplifier and the PatchMaster software (HEKA) or Axon700B amplifier and Clampex software (AXON). The recording electrode was pulled from borosilicate glass, and the electrode resistance was 4 to 6 MQ. The ALA-VC-8PG™ system was used for drug application. Single cell that grew independently was selected for recording. During recording, the cell membrane potential was clamped at −60 mV. During experiment, an extracellular solution was applied outside the cells for about 20 seconds. When the baseline reached to a stable state, the extracellular solution was switched to the GABA solution to induce an inward current. After about 20 to 40 seconds until the current was stable, the solution was switched to a corresponding drug solution to detect the effect of the drug. At last, the solution was switched to the extracellular solution, and the experiment was terminated when the baseline returned to the level before drug application. […]

Row | SMILES | Ki ([1]; read-out: α5-GABAAR Ki) | inhibition at 0.1 µM [2] | Ki ([1]; α5-GABAAR Ki)
1 | Cc1nnn(-c2ccc(C(F)F)cc2)c1COc1ccc(N2CCN(CCO)C(=O)C2)nn1 [Example 59, 4-(6-((1-(4-(Difluoromethyl)phenyl)-4-methyl-1H-1,2,3-triazol-5-yl)methoxy)pyridazin-3-yl)-1-(2-hydroxyethyl)piperazin-2-one] | 3.97 nM | 44.9% | –
2 | Cc1nnn(-c2ccc(C(F)F)cc2)c1COc1ccc(N2CCN3[C@@H]4CCC[C@@H]4NC(=O)[C@@H]3C2)nn1 [Example 197, (4aS,6aS,9aR)-3-(6-((1-(4-(Difluoromethyl)phenyl)-4-methyl-1H-1,2,3-triazol-5-yl)methoxy)pyridazin-3-yl)decahydrocyclopenta[e]pyrazino[1,2-a]pyrazin-5(1H)-one] | – | 52.4% | 4.95 nM
3 | Cc1nnn(-c2ccc(C(F)F)cc2)c1COc1ccc(N2CCN[C@@H](C(=O)O)C2)nn1 [Example 28, (R)-4-(6-((1-(4-(Difluoromethyl)phenyl)-4-methyl-1H-1,2,3-triazol-5-yl)methoxy)pyridazin-3-yl)piperazine-2-carboxylic acid] | 4.31 nM | 47.7% | –
4 | Cc1nnc([C@@H]2CN(c3ccc(OCc4c(C)nnn4-c4ccc(C(F)F)cc4)nn3)CCN2)o1 [Example 34, (S)-2-(4-(6-((1-(4-(Difluoromethyl)phenyl)-4-methyl-1H-1,2,3-triazol-5-yl)methoxy)pyridazin-3-yl)piperazin-2-yl)-5-methyl-1,3,4-oxadiazole] | 7.08 nM | 42.2% | –
5 | Cc1nnn(-c2ccc(C(F)F)cc2)c1COc1ccc(N2CCNC(=O)CC2)nn1 [Example 3, 1-(6-((1-(4-(Difluoromethyl)phenyl)-4-methyl-1H-1,2,3-triazol-5-yl)methoxy)pyridazin-3-yl)-1,4-diazepan-5-one] | 1.28 nM | 40.8% | –
6 | Cc1nnn(-c2ccc(C(F)F)cc2)c1COc1ccc(N2CC(C(=O)NC3COC3)C2)nn1 [Example 45, 1-(6-((1-(4-(Difluoromethyl)phenyl)-4-methyl-1H-1,2,3-triazol-5-yl)methoxy)pyridazin-3-yl)-N-(oxetan-pyridin-3-yl)azetidine-3-carboxamide] | 3.26 nM | 50.8% | –
7 | Cc1nnn(-c2ccc(C(F)F)cc2)c1COc1ccc(C2=CC(=O)NCC2)nn1 [Example 57, 4-(6-((1-(4-(Difluoromethyl)phenyl)-4-methyl-1H-1,2,3-triazol-5-yl)methoxy)pyridazin-3-yl)-5,6-dihydropyridin-2(1H)-one] | 0.27 nM | 52% | –
8 | Cc1nnn(-c2ccc(C(F)F)cc2)c1COc1ccc(N2CCN3[C@@H](C2)C(=O)N[C@@H]2CCC[C@@H]23)nn1 [Example 198, (4aS,6aR,9aS)-3-(6-((1-(4-(difluoromethyl)phenyl)-4-methyl-1H-1,2,3-triazol-5-yl)methoxy)pyridazin-3-yl)decahydrocyclopenta[e]pyrazino[1,2-a]pyrazin-5(1H)-one] | – | 48.2% | 3.13 nM
9 | CNS(=O)(=O)C1CCN(c2ccc(OCc3c(C)nnn3-c3ccc(C(F)F)cc3)nn2)C1 (stereo not shown) [Example 64, 1-(6-((1-(4-(Difluoromethyl)phenyl)-4-methyl-1H-1,2,3-triazol-5-yl)methoxy)pyridazin-3-yl)-N-methylpyrrolidine-3-sulfonamide] | 1.45 nM | 41.1% | –
10 | Cc1nnn(-c2ccc(C(F)F)cc2)c1COc1ccc(N2CCN3C4CCCCC4NC(=O)[C@@H]3C2)nn1 (stereo partly drawn) [Example 199, (4aS)-3-(6-((1-(4-(Difluoromethyl)phenyl)-4-methyl-1H-1,2,3-triazol-5-yl)methoxy)pyridazin-3-yl)decahydro-1H-pyrazino[1,2-a]quinoxalin-5(6H)-one] | – | 60.2% | 3.17 nM

Second part, led by results:

Row | Ki ([1]; read-out: α5-GABAAR Ki) | inhibition at 0.1 µM [2] | SMILES | Ki ([1]; α5-GABAAR Ki)
11 | 2.82 nM | 51.3% | Cc1nnn(-c2ccc(C(F)F)cc2)c1COc1ccc(N2CCN(c3ccncc3)C(=O)C2)nn1 [Example 114, 4-(6-((1-(4-(Difluoromethyl)phenyl)-4-methyl-1H-1,2,3-triazol-5-yl)methoxy)pyridazin-3-yl)-1-(pyridin-pyridin-4-yl)piperazin-2-one] | –
12 | 2.37 nM | 56.1% | Cc1nnn(-c2ccc(C(F)F)cc2)c1COc1ccc(N2CCN3C(=O)CNC(=O)[C@H]3C2)nn1 [Example 65, (R)-8-(6-((1-(4-(Difluoromethyl)phenyl)-4-methyl-1H-1,2,3-triazol-5-yl)methoxy)pyridazin-3-yl)hexahydro-1H-pyrazino[1,2-a]pyrazine-1,4(6H)-dione] | –
13 | 26.4 nM | 43.6% | Cc1nnn(-c2ccc(Cl)cc2)c1COc1ccc(N2CCN3CCNC(=O)[C@@H]3C2)nn1 [Example 163, (S)-8-(6-((1-(4-Chlorophenyl)-4-methyl-1H-1,2,3-triazol-5-yl)methoxy)pyridazin-3-yl)hexahydro-2H-pyrazino[1,2-a]pyrazin-1(6H)-one] | –
14 | 1.27 nM | 69% | Cc1nnn(-c2ccc(C(F)F)cc2)c1COc1ccc(N2CCN(CCCc3ccc(C#N)cc3)C(=O)C2)nn1 [Example 145, 4-(3-(4-(6-((1-(4-(Difluoromethyl)phenyl)-4-methyl-1H-1,2,3-triazol-5-yl)methoxy)pyridazin-3-yl)-2-oxopiperazin-1-yl)propyl)benzonitrile] | –
15 | 1.53 nM | 53.7% | Cc1nnn(-c2ccc(C(F)F)cc2)c1COc1ccc(N2CCN(CC3CCOC3)C(=O)C2)nn1 (stereo not shown) [Example 98, 4-(6-((1-(4-(Difluoromethyl)phenyl)-4-methyl-1H-1,2,3-triazol-5-yl)methoxy)pyridazin-3-yl)-1-((tetrahydrofuran-3-yl)methyl)piperazin-2-one] | –
16 | 1.96 nM | 55.9% | Cc1nnn(-c2ccc(C(F)F)cc2)c1COc1ccc(N2CCN3CC(CC(C)C)NC(=O)[C@@H]3C2)nn1 (single isomer, unassigned) [Example 208] | –
17 | 5.26 nM | 46.6% | Cc1nnn(-c2ccc(C(F)F)cc2)c1COc1ccc(N2CC(C(=O)N3CCCC(O)C3)C2)nn1 (stereo not shown) [Example 154, (1-(6-((1-(4-(Difluoromethyl)phenyl)-4-methyl-1H-1,2,3-triazol-5-yl)methoxy)pyridazin-3-yl)azetidin-3-yl)(3-hydroxypiperidin-1-yl)methanone] | –
18 | 4.13 nM | 44.3% | Cc1nnn(-c2ccc(C(F)F)cc2)c1COc1ccc(N2CC(C(=O)N3CC(C)OC(C)C3)C2)nn1 (stereo not shown) [Example 156, (1-(6-((1-(4-(Difluoromethyl)phenyl)-4-methyl-1H-1,2,3-triazol-5-yl)methoxy)pyridazin-3-yl)azetidin-3-yl)(2,6-dimethylmorpholino)methanone] | –
19 | 1.99 nM | 50.8% | Cc1nnn(-c2ccc(C(F)F)cc2)c1COc1ccc(N2CCN3CC(C4CC4)NC(=O)[C@@H]3C2)nn1 (single isomer, unassigned) [Example 203] | –
20 | 2.79 nM | 47.6% | Cc1nnn(-c2ccc(C(F)F)cc2)c1COc1ccc(N2CCN3CC(c4cnn(C)c4)NC(=O)[C@@H]3C2)nn1 (single isomer, unassigned) [Example 210] | –
